Laboratory results: patent publication US9079152B2, “Encapsulated essential oils” (BEN GURION UNIVERSITY OF THE NEGEV RESEARCH AND DEVELOPMENT …, priority 2004, dated 2015)

System: mosquito larvae
Test: Comparison tests of cyromazine for larvicidal activity
Format: in vivo
Conditions: 0.5 g/m^2 of cyromazine; after 3 days
Experimental: Tests with cyromazine, an insect growth regulator produced by Novartis, was tested for larvicidal activity, either as such or in encapsulated form An effective concentration of 0.5 g/m^2 of cyromazine gave 60% mortality after 3 days, and the best sustained-release formulation gave. 100% mortality after 8 days.

Nc1nc(N)nc(NC2CC2)n1 [cyromazine]
mortality: 60%
